From US20240360113A1, “AMINOARYL-INTEGRIN AGONISTS COMPOUNDS” (Texas Heart Institute, priority 2021, published 2024)

Experiments:
[1] = target: T1, α4β1/VCAM-1 (Homo sapiens, UniProt P05556+P13612); experiment: Static cell adhesion assay, Jurkat cells on VCAM-1 (VLA-4 agonist activity); format: cell-based; conditions: for Group against VCAM: EC50 relative to THI0349 (average 11 uM) run on the same plate, Jurkat cells, 50% FBS; for EC50: assay conditions reported herein, in the presence of serum, read-out: EC50 against VCAM
T1 construct: The Jurkat (VCAM-1 assays) and HSB (ICAM-1 assays) cell lines were obtained from American Type Culture Collection; endogenous in cells; host or cells: Jurkat (ATCC)
Protocol: (§1) For in vitro cell adhesion assays, compounds were dissolved in DMSO to make a series of stock solutions such that a 1:100 dilution in assay buffer would yield the desired final working concentrations in 1% DMSO (vehicle). Human VCAM-1 and ICAM-1 were purchased from R&D Systems (Minneapolis, MN). The Jurkat (VCAM-1 assays) and HSB (ICAM-1 assays) cell lines were obtained from American Type Culture Collection (Manassas, VA) and were maintained in recommended culture media.
(§2) Assays were performed as previously described in Vanderslice et al., (2010), Biochem Biophys Res Commun 400, 619-624; and Vanderslice et al., (2013) J Biol Chem 288, 19414-19428. VCAM-1 or ICAM-1 ligand in 50 μL of 50 mM Tris-HCl (pH 7.4), 150 mM NaCl, (TBS) was added to wells of a 96-well plate and allowed to coat overnight at 4° C. To maximize the window to evaluate agonist activity, a sub-optimal coating concentration of ligand was used, typically 0.5 and 5 μg/mL in 50 μL TBS for VCAM-1 and ICAM-1 respectively. This ligand concentration corresponded approximately to that which would yield <5% adhesion as determined by dose-response curves. Briefly, 2×10^6 cells were labeled for 30 minutes with calcein-AM (Molecular Probes), washed, resuspended in binding buffer, and added to triplicate wells of ligand-coated plates (2×10^5 cells/well) that had been blocked with 2% BSA. After a 30-minute incubation at 37° C., the plates were washed 3 times with binding buffer, the adherent cells were lysed, and fluorescence was measured on a Tecan Safire^2 plate reader. The binding buffer was PBS with 1 mM MgCl2, 50% FBS for α4β1/VCAM-1 assays and PBS with 2 mM MgCl2, 5 mM EGTA, 50% FBS for αLβ2/ICAM-1 assays. EC50 is defined as the concentration of compound required to achieve 50% of the maximal response.

[2] = target: T2, αLβ2/ICAM-1 (Homo sapiens, UniProt P05107+P20701); experiment: Static cell adhesion assay, HSB cells on ICAM-1 (LFA-1; LAD); format: cell-based; conditions: RFU of compound / RFU of THI0349, both at the same concentration
T2 construct: The Jurkat (VCAM-1 assays) and HSB (ICAM-1 assays) cell lines were obtained from American Type Culture Collection; endogenous in cells; host or cells: HSB (ATCC)
Protocol: as §1, §2
In relation to LAD (Leukocyte Adhesion Deficiency), LFA-1 ratios are determined by dividing the relative fluorescence units (RFU) of each compound at a concentration of 3 μM over that of the reference standard of THI0349, also at 3 μM, (RFU Compound/RFU of THI0349). Log Ps were calculated by either Chemdraw® version 12 (CambridgeSoft) or ACD/Chemsketch® (ACD/Labs).

T2 sequence (P20701 26-1170): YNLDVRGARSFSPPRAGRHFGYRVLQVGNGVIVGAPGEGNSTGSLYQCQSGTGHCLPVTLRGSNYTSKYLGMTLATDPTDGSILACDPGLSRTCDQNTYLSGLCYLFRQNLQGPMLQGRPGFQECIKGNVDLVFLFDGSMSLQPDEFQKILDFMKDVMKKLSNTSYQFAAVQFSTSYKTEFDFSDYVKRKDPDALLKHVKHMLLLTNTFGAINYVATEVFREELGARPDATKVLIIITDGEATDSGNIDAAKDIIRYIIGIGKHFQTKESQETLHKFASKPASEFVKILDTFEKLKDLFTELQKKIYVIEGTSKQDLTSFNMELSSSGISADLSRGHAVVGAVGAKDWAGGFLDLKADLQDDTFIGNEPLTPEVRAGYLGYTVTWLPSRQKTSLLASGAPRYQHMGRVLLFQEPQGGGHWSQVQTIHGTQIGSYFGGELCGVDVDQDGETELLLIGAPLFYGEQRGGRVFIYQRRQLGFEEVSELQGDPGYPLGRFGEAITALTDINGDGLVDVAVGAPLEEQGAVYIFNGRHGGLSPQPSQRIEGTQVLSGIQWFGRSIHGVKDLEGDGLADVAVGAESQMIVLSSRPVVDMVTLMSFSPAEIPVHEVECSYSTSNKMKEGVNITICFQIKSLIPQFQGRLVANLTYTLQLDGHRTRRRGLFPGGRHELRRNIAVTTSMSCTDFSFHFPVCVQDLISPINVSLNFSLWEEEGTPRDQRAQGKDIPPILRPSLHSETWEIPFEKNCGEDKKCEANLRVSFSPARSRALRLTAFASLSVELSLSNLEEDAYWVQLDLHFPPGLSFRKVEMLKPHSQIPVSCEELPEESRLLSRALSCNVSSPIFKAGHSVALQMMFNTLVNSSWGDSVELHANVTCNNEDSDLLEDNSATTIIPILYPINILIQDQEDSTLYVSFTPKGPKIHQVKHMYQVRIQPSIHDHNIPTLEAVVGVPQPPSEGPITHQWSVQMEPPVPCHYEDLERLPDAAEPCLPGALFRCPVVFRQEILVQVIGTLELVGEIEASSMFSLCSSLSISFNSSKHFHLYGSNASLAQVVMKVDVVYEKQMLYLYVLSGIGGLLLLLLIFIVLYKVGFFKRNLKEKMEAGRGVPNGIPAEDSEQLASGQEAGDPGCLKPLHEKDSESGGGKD
T2 sequence (P05107 23-769): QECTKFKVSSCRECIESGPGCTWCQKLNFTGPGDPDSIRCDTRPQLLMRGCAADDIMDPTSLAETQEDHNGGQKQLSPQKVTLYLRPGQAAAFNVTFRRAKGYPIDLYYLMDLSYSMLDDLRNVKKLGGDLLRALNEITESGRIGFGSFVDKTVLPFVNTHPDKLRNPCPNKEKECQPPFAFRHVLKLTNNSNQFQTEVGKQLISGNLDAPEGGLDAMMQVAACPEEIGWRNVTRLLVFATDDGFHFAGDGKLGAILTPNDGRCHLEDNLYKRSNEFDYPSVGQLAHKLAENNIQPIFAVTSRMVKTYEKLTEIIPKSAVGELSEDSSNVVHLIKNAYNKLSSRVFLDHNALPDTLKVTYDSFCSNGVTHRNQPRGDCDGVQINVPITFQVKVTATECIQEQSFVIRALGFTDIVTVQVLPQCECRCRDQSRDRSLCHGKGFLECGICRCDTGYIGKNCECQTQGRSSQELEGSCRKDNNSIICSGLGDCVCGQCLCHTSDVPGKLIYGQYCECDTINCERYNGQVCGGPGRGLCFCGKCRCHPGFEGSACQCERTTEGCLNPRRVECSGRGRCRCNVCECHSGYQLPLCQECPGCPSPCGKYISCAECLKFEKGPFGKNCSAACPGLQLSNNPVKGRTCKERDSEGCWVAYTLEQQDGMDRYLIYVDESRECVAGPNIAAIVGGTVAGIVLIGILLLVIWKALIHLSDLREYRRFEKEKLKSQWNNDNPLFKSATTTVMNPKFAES
T1 sequence (P13612 34-1032): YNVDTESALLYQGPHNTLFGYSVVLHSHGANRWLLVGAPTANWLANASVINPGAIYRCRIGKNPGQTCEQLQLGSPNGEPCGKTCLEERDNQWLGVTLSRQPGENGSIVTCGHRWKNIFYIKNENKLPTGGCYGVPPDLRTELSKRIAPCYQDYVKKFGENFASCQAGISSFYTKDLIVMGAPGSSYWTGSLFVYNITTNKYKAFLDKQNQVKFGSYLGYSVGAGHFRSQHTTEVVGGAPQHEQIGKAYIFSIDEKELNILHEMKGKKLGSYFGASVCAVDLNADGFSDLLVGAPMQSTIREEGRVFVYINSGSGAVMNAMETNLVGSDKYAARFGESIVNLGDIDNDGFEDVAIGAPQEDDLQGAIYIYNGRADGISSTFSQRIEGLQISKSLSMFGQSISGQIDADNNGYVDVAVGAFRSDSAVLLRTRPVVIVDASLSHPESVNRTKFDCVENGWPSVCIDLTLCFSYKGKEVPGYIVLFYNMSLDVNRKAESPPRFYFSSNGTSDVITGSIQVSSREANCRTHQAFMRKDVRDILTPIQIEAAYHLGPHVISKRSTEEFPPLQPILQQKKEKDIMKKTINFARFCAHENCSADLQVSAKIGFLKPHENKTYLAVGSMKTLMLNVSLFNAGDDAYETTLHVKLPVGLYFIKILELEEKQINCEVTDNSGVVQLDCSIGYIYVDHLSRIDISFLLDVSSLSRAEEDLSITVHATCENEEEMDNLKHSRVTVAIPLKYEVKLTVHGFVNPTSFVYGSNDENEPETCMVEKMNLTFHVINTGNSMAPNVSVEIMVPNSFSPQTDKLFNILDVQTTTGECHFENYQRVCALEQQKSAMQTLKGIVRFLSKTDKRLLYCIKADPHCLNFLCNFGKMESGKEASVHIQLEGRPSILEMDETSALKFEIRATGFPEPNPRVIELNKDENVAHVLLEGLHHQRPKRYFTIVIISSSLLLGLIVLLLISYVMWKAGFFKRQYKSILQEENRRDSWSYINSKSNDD
T1 sequence (P05556 21-798): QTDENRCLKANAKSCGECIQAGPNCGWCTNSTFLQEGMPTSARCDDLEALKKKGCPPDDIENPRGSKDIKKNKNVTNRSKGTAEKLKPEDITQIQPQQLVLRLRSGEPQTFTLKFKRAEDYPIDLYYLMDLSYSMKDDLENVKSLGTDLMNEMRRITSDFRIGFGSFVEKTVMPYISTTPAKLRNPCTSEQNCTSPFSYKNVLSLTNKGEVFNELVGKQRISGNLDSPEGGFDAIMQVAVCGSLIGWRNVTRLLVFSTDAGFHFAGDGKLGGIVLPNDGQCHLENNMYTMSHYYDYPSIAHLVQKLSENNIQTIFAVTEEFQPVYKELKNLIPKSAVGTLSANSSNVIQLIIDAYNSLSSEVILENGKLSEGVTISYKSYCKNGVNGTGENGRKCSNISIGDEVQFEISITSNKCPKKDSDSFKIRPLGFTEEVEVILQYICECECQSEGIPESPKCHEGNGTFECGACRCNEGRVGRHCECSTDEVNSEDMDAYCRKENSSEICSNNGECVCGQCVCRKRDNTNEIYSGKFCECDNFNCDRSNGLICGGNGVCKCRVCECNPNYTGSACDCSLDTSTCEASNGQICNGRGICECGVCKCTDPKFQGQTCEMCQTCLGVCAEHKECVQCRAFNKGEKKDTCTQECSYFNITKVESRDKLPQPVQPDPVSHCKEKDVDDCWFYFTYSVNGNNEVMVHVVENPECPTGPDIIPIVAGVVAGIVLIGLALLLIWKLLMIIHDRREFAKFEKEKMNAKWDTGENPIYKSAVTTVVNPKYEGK

LAD Raw Fluorescence Units against LFA-1; Dose 3 µM; Ratio of raw counts Compound/THI0349 [2]	Compound	Group against VCAM [1]	EC50 [1] [µM]
–	COc1cccc(CN(Cc2cccc(OC)c2)c2nc(COCC3COC3)cs2)c1 [Compound 129, N,N-bis(3-methoxybenzyl)-4-((oxetan-3-ylmethoxy)methyl)thiazol-2-amine]	II (Group II is more than twice that of THI0349 but less than five times THI0349's EC50)	–
0.25	COc1cccc(COCCOCc2csc(N(Cc3cccc(OC)c3)Cc3cccc(OC)c3)n2)c1 [Compound 57, N,N-bis(3-methoxybenzyl)-4-((2-(3-methoxybenzyloxy)ethoxy)methyl)thiazol-2-amine]	I (Group I maintains at least the same potency or better up to more than twice that of the EC50 of THI0349 ran on the same plate)	–
0.06	COc1cccc(CN(C)c2nc(CN3CCOCC3)cs2)c1 [Compound 111, N-(3-methoxybenzyl)-N-methyl-4-(morpholinomethyl)thiazol-2-amine]	III (Group III more than five times the EC50 of THI0349)	–
0.64	CCOC(=O)c1csc(N(Cc2ccc(-n3ccnc3)cc2)Cc2cccc(OC)c2)n1 [Compound 113, ethyl 2-((4-(1H-imidazol-1-yl)benzyl)(3-methoxybenzyl)amino)thiazole-4-carboxylate]	II (Group II is more than twice that of THI0349 but less than five times THI0349's EC50)	–
–	COc1cccc(CN(Cc2cccc(OC)c2)c2nc(COCC3CCOCC3)cs2)c1 [Compound 124, N,N-bis(3-methoxybenzyl)-4-(((tetrahydro-2H-pyran-4-yl)methoxy)methyl)thiazol-2-amine]	II (Group II is more than twice that of THI0349 but less than five times THI0349's EC50)	–
1.3	COc1cccc(CN(Cc2cccc(OC)c2)c2nc(COCCOc3ccc(N(C)C)cc3)cs2)c1 [Compound 51, 4-((2-(4-(dimethylamino)phenoxy)ethoxy)methyl)-N,N-bis(3-methoxybenzyl)thiazol-2-amine]	III (Group III more than five times the EC50 of THI0349)	–
0.74	OCc1coc(N(Cc2cccs2)Cc2cccs2)n1 [Compound 25, (2-(bis(thiophen-2-ylmethyl)amino)oxazol-4-yl)methanol]	II (Group II is more than twice that of THI0349 but less than five times THI0349's EC50)	–
1.2	COc1cccc(CN(Cc2cccc(OC)c2)c2nc(CN3CCOCC3)cs2)c1 [Compound 67, N,N-bis(3-methoxybenzyl)-4-(morpholinomethyl)thiazol-2-amine]	I (Group I maintains at least the same potency or better up to more than twice that of the EC50 of THI0349 ran on the same plate)	–
0.92	COc1cccc(CN(Cc2cccc(OC)c2)c2nc(COCCOCc3ccccc3C)cs2)c1 [Compound 60, N,N-bis(3-methoxybenzyl)-4-((2-((2-methylbenzyl)oxy)ethoxy)methyl)thiazol-2-amine]	I (Group I maintains at least the same potency or better up to more than twice that of the EC50 of THI0349 ran on the same plate)	–
1.9	COc1cccc(CN(Cc2cccc(OC)c2)c2nc(COCCOCCN3CCOCC3)cs2)c1 [Compound 61, N,N-bis(3-methoxybenzyl)-4-((2-(2-morpholinoethoxy)ethoxy)methyl)thiazol-2-amine]	I (Group I maintains at least the same potency or better up to more than twice that of the EC50 of THI0349 ran on the same plate)	–
0.75	COc1cccc(COc2cc(C)n(N(Cc3cccc(OC)c3)Cc3cccc(OC)c3)c(=O)c2)c1 [Compound 127, 1-(bis(3-methoxybenzyl)amino)-4-((3-methoxybenzyl)oxy)-6-methylpyridin-2(1H)-one]	II (Group II is more than twice that of THI0349 but less than five times THI0349's EC50)	–
–	O=C(OCCOCCOCCOC(=O)N(Cc1cccs1)Cc1cccs1)N(Cc1cccs1)Cc1cccs1 [THI0349, reference compound]	–	11
–	CCOC(=O)c1csc(N(Cc2cccc(OC)c2)Cc2ccc3nc[nH]c3c2)n1 [Compound 120, ethyl 2-(((1H-benzo[d]imidazol-6-yl)methyl)(3-methoxybenzyl)amino)thiazole-4-carboxylate]	III (Group III more than five times the EC50 of THI0349)	–
–	COc1ccc(CCNC(=O)c2csc(N(Cc3cccc(OC)c3)Cc3cccc(OC)c3)n2)cc1 [Compound 21, 2-(bis(3-methoxybenzyl)amino)-N-(4-methoxyphenethyl)thiazole-4-carboxamide]	I (Group I maintains at least the same potency or better up to more than twice that of the EC50 of THI0349 ran on the same plate)	–
0.48	COc1cccc(CN(Cc2cccc(OC)c2)c2nc(COCCOCc3ccccc3)cs2)c1 [Compound 58, 4-((2-(benzyloxy)ethoxy)methyl)-N,N-bis(3-methoxybenzyl)thiazol-2-amine]	I (Group I maintains at least the same potency or better up to more than twice that of the EC50 of THI0349 ran on the same plate)	–
–	COc1cccc(CN(Cc2cccc(OC)c2)c2nc(CNCC3CCN(C)CC3)cs2)c1 [Compound 130, N,N-bis(3-methoxybenzyl)-4-(((1-methylpiperidin-4-yl)methylamino)methyl)thiazol-2-amine]	III (Group III more than five times the EC50 of THI0349)	–
–	COc1cccc(CN(Cc2cccc(OC)c2)c2nc(CNC3CCOCC3)cs2)c1 [Compound 128, N,N-bis(3-methoxybenzyl)-4-((tetrahydro-2H-pyran-4-ylamino)methyl)thiazol-2-amine]	I (Group I maintains at least the same potency or better up to more than twice that of the EC50 of THI0349 ran on the same plate)	–
–	COc1cccc(CN(Cc2cccc(OC)c2)c2nc(COC3COC3)cs2)c1 [Compound 123, N,N-bis(3-methoxybenzyl)-4-((oxetan-3-yloxy)methyl)thiazol-2-amine]	II (Group II is more than twice that of THI0349 but less than five times THI0349's EC50)	–
–	COc1cccc(CN(Cc2cccc(OC)c2)c2nc(CN(C)C3CCOCC3)cs2)c1 [Compound 125, N,N-bis(3-methoxybenzyl)-4-((methyl(tetrahydro-2H-pyran-4-yl)amino)methyl)thiazol-2-amine]	II (Group II is more than twice that of THI0349 but less than five times THI0349's EC50)	–
–	COc1cccc(CN(Cc2cccc(OC)c2)c2nc(COC3CCOCC3)cs2)c1 [Compound 122, N,N-bis(3-methoxybenzyl)-4-((tetrahydro-2H-pyran-4-yloxy)methyl)thiazol-2-amine]	II (Group II is more than twice that of THI0349 but less than five times THI0349's EC50)	–
–	COc1cccc(CN(Cc2cccc(OC)c2)c2nc(CNC3CCN(C)CC3)cs2)c1 [Compound 126, N,N-bis(3-methoxybenzyl)-4-((1-methylpiperidin-4-ylamino)methyl)thiazol-2-amine]	III (Group III more than five times the EC50 of THI0349)	–
–	COc1cccc(CN(Cc2cccc(OC)c2)c2nc(COCCOC3CCOCC3)cs2)c1 [Compound 131, N,N-bis(3-methoxybenzyl)-4-((2-(tetrahydro-2H-pyran-4-yloxy)ethoxy)methyl)thiazol-2-amine]	I (Group I maintains at least the same potency or better up to more than twice that of the EC50 of THI0349 ran on the same plate)	–
–	CCCC[C@@H](COC(=O)N(Cc1cccs1)Cc1cccs1)NC(=O)N[C@@H](CC(=O)OC)c1ccc2c(c1)OCO2 [THI0019, reference compound]	–	33
